According to patent US20190111158A1, “INJECTION COMPOSITION FOR LABELING LESION” (NATIONAL CANCER CENTER, priority 2016, published 2019):

Key:
[1] = cited from earlier work
[2] = near-infrared fluorescence signal intensity of ICG-MAA complexes at various ICG/MAA mixing ratios; format: physicochemical; details: for near-infrared fluorescence signal intensity: MAA 0 mg/mL

CC1(C)C(/C=C/C=C/C=C/C=C2\N(CCCCS(=O)(=O)O)c3ccc4ccccc4c3C2(C)C)=[N+](CCCCS(=O)(=O)[O-])c2ccc3ccccc3c21 [ICG, indocyanine green]
clinical safety ([1]; 18 breast cancer patients (T. Kitai, et al., Breast Cancer, 12:211-215, 2005)): safe clinical use | elimination after injection into the human body ([1]; human body): decomposed and disappears or is excreted in the urine or feces within an hour | near-infrared fluorescence signal intensity ([2]; ICG 1.3 (μN)): 18 | near-infrared fluorescence signal intensity ([2]; ICG 3.9 (μN)): 120 | near-infrared fluorescence signal intensity ([2]; ICG 6.5 (μN)): 212 | near-infrared fluorescence signal intensity ([2]; ICG 9.0 (μN)): 289 | near-infrared fluorescence signal intensity ([2]; ICG 12.9 (μN)): 363 | near-infrared fluorescence signal intensity ([2]; ICG 25.8 (μN)): 466 | near-infrared fluorescence signal intensity ([2]; ICG 38.7 (μN)): 425 | near-infrared fluorescence signal intensity ([2]; ICG 51.6 (μN)): 399 | near-infrared fluorescence signal intensity ([2]; ICG 64.5 (μN)): 374 | near-infrared fluorescence signal intensity ([2]; ICG 77.4 (μN)): 332 | near-infrared fluorescence signal intensity ([2]; ICG 103 (μN)): 289 | near-infrared fluorescence signal intensity ([2]; ICG 258 (μN)): 139 | near-infrared fluorescence signal intensity ([2]; ICG 516 (μN)): 71 | near-infrared fluorescence signal intensity ([2]; ICG 774 (μN)): 39 | near-infrared fluorescence signal intensity ([2]; ICG 1032 (μN)): 30 | ICG concentration with the highest value of near-infrared fluorescence signal intensity ([2]; MAA was not treated): 25.8 µM
